We go through six compounds from ChEMBL document CHEMBL1201862, “PubChem BioAssay data set” (2004).

The source made the active and inactive calls.

Test [1] can be described thus: Vero cell cytotoxicity, dose response, cytotoxicity control for Vif-APOBEC3G degradation inhibitor project, Vero cells (AID 1117358). It is filed as functional. The conditions noted are these: Human immunodeficiency virus 1, Vero.
Test [2] is described as follows: M. tuberculosis growth inhibition, HTS (AID 449762). The test is classed as functional.
Test [3] is described as follows: microbe, parasite or virus in culture. The test is classed as functional. The conditions noted are these: Mycobacterium tuberculosis.
Test [4] addresses T1, Bcl-2-related protein A1 (Mus musculus, UniProt Q07440).
T1 sequence (Q07440 whole entry): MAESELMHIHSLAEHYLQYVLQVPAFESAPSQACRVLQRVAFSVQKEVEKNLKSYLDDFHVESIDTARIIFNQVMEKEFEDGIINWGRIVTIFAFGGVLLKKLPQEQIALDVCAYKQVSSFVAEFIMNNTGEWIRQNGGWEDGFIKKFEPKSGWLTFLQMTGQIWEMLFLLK
As to the kind of experiment: Bfl-1 inhibitors, primary screen, biochemical, fluorescence polarization, FITC-Bid, mouse (AID 432).

For test [5], the target named is T1, Bcl-2-related protein A1. As to the kind of experiment: Bfl-1 inhibitors blocking BH3 peptide binding, confirmation, biochemical, TR-FRET, mouse Bfl-1 (AID 621).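 Also: TR-FRET binding of GST-Bfl-1 to FITC-labelled Bid peptide via terbium antibody.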 A general note: TR-FRET usually uses a lanthanide donor and a delayed reading to cut background.
Test [6] has as its target T2, Aminopeptidase N (Plasmodium falciparum FcB1/Columbia, UniProt O96935).
T2 sequence (O96935 whole entry): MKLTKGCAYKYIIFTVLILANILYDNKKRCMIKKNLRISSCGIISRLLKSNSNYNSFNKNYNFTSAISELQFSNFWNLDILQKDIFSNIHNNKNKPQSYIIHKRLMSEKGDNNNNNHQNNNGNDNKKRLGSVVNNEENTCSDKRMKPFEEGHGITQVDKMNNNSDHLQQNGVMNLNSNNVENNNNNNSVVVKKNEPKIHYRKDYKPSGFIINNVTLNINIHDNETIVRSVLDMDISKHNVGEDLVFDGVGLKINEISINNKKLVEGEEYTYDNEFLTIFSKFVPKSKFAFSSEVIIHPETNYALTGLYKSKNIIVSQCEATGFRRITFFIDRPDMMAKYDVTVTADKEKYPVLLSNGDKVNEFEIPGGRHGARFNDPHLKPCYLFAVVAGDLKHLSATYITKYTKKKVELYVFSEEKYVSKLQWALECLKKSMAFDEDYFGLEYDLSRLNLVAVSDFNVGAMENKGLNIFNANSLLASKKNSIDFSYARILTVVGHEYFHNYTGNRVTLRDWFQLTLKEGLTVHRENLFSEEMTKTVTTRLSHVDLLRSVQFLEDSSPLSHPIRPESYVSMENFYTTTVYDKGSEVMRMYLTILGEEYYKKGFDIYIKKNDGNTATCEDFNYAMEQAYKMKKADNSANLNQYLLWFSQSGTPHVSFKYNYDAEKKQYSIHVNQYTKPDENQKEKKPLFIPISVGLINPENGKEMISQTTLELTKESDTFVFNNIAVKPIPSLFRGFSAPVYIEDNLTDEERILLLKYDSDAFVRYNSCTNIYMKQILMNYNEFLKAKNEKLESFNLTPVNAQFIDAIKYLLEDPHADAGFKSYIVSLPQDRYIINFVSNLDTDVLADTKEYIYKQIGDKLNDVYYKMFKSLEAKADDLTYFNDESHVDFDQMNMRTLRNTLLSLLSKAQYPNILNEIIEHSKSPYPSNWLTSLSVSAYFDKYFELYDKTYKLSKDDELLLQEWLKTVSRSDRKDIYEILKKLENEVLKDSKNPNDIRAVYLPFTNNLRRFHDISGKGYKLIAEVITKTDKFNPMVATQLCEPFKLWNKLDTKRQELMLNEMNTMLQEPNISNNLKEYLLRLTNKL
The test is described as follows: P. falciparum M1AAP inhibitors, biochemical, fluorogenic H-Leu-NHMec substrate, 1536-well (AID 1445). The arrangement: species or system Plasmodium falciparum 3D7, 3D7.

The target of test [7] is Sphingosine 1-phosphate receptor 2 (Homo sapiens, UniProt O95136). The test is described as follows: Dose Response Cell Based Assay for Agonists of the S1P2 Receptor. [Related pubchem assays: 729, 736, 843 ]. The test is classed as functional.
Test [8] deals with T3, Mannose-6-phosphate isomerase (Homo sapiens, UniProt P34949).
T3 sequence (P34949 whole entry): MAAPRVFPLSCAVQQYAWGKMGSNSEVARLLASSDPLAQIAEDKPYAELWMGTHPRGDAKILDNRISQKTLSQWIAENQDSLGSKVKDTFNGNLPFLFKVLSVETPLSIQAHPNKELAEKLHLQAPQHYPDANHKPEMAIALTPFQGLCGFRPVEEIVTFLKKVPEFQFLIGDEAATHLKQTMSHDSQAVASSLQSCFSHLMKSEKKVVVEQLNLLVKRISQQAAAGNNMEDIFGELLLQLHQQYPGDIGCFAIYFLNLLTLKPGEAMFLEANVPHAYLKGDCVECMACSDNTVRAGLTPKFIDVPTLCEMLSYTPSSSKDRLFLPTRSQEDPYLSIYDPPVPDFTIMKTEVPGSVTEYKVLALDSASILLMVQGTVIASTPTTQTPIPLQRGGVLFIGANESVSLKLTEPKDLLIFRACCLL
As to the kind of experiment: inhibitors of human PMI, primary screen, biochemical, fluorescence intensity, coupled assay (AID 1209).

Test [9] deals with T3, Mannose-6-phosphate isomerase. The test is described as follows: human PMI inhibitors, high substrate, primary screen, biochemical, fluorescence intensity, high mannose 6-phosphate (AID 1220).
Test [10] addresses Genome polyprotein (dengue virus type 2, UniProt P29990). The test is described as follows: Dengue-2 NS5 methyltransferase inhibitors, primary screen, biochemical, confirmation dose response (AID 588689). It is filed as functional.
Test [11] deals with Ras and Rab interactor 1/Tyrosine-protein kinase ABL1 (Homo sapiens, UniProt P00519+Q13671). It is filed as functional.
A short description of test [12]: inhibitors of firefly luciferase expression or activity, dose response, H4 neuroglioma cells, luminescence (AID 1990). The test is classed as functional, cell-based.
Test [13] in a line: Luminescence Cell-Based Dose Response HTS to Identify Inhibitors of 5'UTR Stem-Loop Driven Prion Protein mRNA Translation in H4 Neuroglioblastoma Cells. [Related pubchem assays: 1827 (Project Summary), 1813 (Primary HTS)]. The test is classed as functional.
Test [14] in a line: inhibitors of SNCA 5'UTR-driven reporter translation, confirmation, H4 neuroglioma cells, luminescence (AID 1988). It is filed as functional, cell-based.
Test [15] is described as follows: inhibitors of HIV Env-driven cell fusion, dose response, cherry-pick (AID 652057). It is filed as functional, cell-based.
Test [16] can be described thus: off-target signal loss in HeLa-CEM21 co-culture – HeLa F-luc CTL cells, cherry-picked, counter-screen for HIV-1 Env fusion inhibitor project, dose response (AID 652040).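 Also: potency for signal decrease marking cytotoxic or nonspecific inhibition.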 The test is classed as functional, cell-based. (In general: A counterscreen serves to expose hits that act by an unwanted route or on another target.)
Test [17] is described as follows: inhibitors of clade B AD8 Env fusion, dose response, cell-based, cherry-pick (AID 652062).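 Also: luciferase signal from cell-cell fusion driven by HIV-1 clade B AD8 Env; potency is for inhibitors of fusion seen as a drop in luminescence.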 It is filed as functional.
The nature of test [18]: inhibitors of Vif binding to APOBEC3G peptide, primary screen, biochemical, TR-FRET, GST-Vif 1-94, biotin-A3G peptide, dose response retest (AID 1117319).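 Also: TR-FRET signal of purified GST-Vif binding a biotinylated A3G peptide; inhibitors lower the FRET signal by blocking Vif and A3G binding.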 It is filed as functional.

Ras and Rab interactor 1/Tyrosine-protein kinase ABL1, sequence (P00519 whole entry): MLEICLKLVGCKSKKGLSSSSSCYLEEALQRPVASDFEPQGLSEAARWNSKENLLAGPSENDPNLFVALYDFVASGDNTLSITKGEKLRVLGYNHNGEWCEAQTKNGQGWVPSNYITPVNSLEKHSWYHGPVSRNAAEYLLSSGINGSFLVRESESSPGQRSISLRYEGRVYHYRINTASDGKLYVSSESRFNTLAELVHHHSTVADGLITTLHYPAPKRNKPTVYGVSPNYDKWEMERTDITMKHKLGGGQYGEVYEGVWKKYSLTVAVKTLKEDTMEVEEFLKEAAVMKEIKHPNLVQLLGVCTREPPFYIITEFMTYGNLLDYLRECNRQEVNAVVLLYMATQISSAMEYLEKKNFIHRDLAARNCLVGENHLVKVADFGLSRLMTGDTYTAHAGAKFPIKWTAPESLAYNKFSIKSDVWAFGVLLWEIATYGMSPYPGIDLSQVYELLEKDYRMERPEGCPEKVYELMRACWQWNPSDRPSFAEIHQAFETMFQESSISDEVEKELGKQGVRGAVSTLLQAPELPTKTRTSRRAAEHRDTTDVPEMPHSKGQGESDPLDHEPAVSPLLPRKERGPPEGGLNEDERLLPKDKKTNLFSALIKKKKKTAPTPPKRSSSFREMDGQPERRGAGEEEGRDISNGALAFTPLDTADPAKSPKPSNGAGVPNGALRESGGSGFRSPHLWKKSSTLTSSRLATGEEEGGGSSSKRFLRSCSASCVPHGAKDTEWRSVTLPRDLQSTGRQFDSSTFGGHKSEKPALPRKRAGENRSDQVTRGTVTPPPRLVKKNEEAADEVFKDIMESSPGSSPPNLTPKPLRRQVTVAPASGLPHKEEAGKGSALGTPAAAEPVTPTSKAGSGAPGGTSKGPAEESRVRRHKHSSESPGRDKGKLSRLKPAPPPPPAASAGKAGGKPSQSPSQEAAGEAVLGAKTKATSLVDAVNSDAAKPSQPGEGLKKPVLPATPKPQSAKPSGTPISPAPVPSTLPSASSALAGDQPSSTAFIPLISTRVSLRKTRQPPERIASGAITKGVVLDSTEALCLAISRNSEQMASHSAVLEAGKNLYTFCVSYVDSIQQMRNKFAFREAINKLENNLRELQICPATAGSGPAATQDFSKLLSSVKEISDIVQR
Ras and Rab interactor 1/Tyrosine-protein kinase ABL1, sequence (Q13671 whole entry): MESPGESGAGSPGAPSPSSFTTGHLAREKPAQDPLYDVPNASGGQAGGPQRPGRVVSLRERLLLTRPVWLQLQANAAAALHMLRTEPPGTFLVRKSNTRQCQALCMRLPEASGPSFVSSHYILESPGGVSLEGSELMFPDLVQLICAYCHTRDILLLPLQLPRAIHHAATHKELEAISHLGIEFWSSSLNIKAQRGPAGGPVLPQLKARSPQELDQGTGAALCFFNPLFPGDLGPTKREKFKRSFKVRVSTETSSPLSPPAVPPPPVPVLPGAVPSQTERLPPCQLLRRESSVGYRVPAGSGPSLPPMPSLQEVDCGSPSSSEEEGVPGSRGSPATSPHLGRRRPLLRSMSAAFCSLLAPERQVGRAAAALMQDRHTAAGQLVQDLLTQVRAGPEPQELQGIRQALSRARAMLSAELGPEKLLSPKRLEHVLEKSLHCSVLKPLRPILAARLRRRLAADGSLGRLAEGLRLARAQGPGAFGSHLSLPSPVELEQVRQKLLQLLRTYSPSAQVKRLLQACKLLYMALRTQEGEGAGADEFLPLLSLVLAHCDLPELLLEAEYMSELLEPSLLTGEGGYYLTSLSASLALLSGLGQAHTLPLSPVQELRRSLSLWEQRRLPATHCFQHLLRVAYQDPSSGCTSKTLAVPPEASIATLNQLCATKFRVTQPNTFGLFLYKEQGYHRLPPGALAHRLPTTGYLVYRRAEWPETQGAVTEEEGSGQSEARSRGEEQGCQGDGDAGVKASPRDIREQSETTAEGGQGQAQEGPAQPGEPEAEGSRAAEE
Genome polyprotein, sequence (P29990 2492-3391 limits assumed): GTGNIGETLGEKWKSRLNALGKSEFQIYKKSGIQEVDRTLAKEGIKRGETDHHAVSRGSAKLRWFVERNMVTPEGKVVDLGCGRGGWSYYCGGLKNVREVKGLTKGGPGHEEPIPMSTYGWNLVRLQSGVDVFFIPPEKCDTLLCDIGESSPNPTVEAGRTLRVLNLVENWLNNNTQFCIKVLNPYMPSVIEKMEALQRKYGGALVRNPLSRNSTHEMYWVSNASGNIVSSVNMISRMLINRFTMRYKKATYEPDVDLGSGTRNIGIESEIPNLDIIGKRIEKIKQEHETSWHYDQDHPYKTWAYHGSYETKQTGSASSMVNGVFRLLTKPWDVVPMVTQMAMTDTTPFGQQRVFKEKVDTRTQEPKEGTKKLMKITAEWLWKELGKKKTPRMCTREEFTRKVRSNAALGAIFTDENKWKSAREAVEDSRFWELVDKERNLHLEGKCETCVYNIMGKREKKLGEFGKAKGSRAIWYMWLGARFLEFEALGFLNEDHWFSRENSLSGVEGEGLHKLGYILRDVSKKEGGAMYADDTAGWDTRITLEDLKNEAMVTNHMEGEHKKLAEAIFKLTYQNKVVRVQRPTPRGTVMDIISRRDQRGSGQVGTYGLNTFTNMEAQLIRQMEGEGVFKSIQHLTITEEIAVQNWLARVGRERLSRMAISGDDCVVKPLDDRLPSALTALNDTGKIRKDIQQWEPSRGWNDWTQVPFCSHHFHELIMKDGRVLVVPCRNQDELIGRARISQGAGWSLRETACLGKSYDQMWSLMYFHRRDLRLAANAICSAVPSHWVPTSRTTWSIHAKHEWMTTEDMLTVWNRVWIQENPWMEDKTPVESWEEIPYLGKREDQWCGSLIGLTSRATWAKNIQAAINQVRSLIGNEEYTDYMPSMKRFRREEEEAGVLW
Sphingosine 1-phosphate receptor 2, sequence (O95136 whole entry): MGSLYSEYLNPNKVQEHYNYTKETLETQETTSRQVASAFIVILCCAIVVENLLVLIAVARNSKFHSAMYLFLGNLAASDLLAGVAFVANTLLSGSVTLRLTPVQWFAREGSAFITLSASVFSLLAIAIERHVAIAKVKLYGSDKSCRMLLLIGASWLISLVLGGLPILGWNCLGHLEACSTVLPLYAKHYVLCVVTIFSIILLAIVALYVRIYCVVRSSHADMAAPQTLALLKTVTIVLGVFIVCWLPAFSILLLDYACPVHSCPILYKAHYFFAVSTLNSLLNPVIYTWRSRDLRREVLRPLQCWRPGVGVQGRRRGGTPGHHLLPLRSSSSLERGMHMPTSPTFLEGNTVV

As for `CSc1cccc(-n2cc(-c3ccc4c(c3)OCO4)nc2O)c1`, in test [1], the CC50 was > 40 µM (active).

On to `CN1CCN(c2ccc(C(=O)c3cn(-c4ccc(F)c(Cl)c4)nn3)cc2)CC1`, for which, in [2], the IC50 was > 100 µM (active). Besides, in [3], the CC50 was 15 µM (active).

In the case of `C1=C(c2ccc(-c3ccccc3)cc2)Nc2ncnn2C1c1ccco1` (stereo not drawn), the IC50 in [4] and in test [5] was > 100 µM (not active) throughout.

On to `O=C(Nc1ccccn1)Nc1cccs1`, for which the IC50 in test [6] is 61.8 µM (active). Besides, in [7], the EC50 is given as > 50 µM (not active).

As to `Oc1ccc(/C=N/N2CCOCC2)c(O)c1O`, the IC50 in test [8] is 11.6 µM (active); in test [9], 10.3 µM (active); in test [10], 45 µM (active); in test [11], > 73.5 µM (inactive).

As for `Cn1c(-c2ccc(Cl)cc2)ccc(C#N)c1=O`, the EC50 in test [12] was 8.33 µM (active); in test [13] it was > 120 µM (not active); in test [14], > 120 µM (not active). The results for the AC50 in [15], in test [16] and in test [17] were 2.46 µM (active), 2.62 µM (active) and 68.9 µM (active), respectively. In test [18], the IC50 is > 100 µM (active).

Broadly, the IC50 is the point on the concentration scale where inhibition reaches its midpoint. By EC50 is commonly meant the midpoint of the concentration-response curve. Broadly, the AC50 is the midpoint of the concentration-response curve, whichever way the signal moves.
